In US20240264159A1 (priority 2021, published 2024):

Molecular target: Spike SARS-CoV-2 foreign nanoparticles / coated host ACE2 nanoparticles (Severe acute respiratory syndrome coronavirus 2, UniProt P0DTC2, D614G)
Assay type: biochemical

C[C@@H]1O[C@@H](O[C@H]2C[C@@H](O)[C@]3(CO)[C@H]4[C@H](O)C[C@]5(C)[C@@H](C6=CC(=O)OC6)CC[C@]5(O)[C@@H]4CC[C@]3(O)C2)[C@H](O)[C@H](O)[C@H]1O [ouabain]
neutralization/blocking of fusion, coated host ACE2 nanoparticles: Neutralization was further blocked
